Measured values published in article PMC3836994, “Killer Bee Molecules: Antimicrobial Peptides as Effector Molecules to Target Sporogonic Stages of Plasmodium” (PLoS Pathogens, 2013).
Values joined by “and” are separate entries in the source; they are usually repeats but may differ in a detail not shown here. Equal values may be shown once. “Also recorded” adds a separate entry of the source.

Tests used:
[1] = system: Anopheles gambiae Sua 4.0 cells; test: Sua 4.0 mosquito cell viability (erythrosin B exclusion); format: cell-based; design: dose or concentration left out as unconfirmed; details: after 48 h culture
Description: (§1) To establish potential effects of AMPs on mosquito cells, the An. gambiae Sua 4.0 cell line was used. This facilitated an initial high-throughput screening and provided insights into AMP toxicity, mode of action (lytic or other) and speed of action. Sua 4.0 cells were maintained at 27°C in Schneider's insect medium supplemented with 10% FBS (foetal bovine serum) in T25 culture flasks (Fisher, UK).
(§2) Each AMP was tested separately to establish if it affected cell viability and growth. […] Cells were maintained for 3, 6, 24 or 48 h, after which they were resuspended and a sub-sample from duplicate wells counted using a haemocytometer. To establish cell viability after 48 h (whether simply arrested in development or non-viable), resuspended cells were added to an equal volume of 5% erythrosin B vital dye and viable cells excluding the stain were counted. The viability of 100 cells in triplicate wells was recorded. Each AMP assay was performed in triplicate and included a negative control minus the peptide (5 µl of water alone added to the medium) and a further control of 5 µl of 10% SDS (sodium dodecyl sulphate) substituted for the AMP as this causes 100% cell lysis.

[2] = system: Anopheles gambiae Sua 4.0 cells; test: Sua 4.0 mosquito cell growth (cell counts); format: cell-based; details: 25 µM AMP; for Average number of cells over 3 replicates, peptide: seeded 30×10^4/ml, mean of 3 experiments
Description: as §1, §2

[3] = system: P. falciparum; details: added to blood meals at 30 µM; ref [35]; cited from earlier work
Description: Some candidate AMPs were additionally investigated using P. falciparum and An. gambiae. TP10 dimer and Melittin lowered both prevalence and intensity of P. falciparum infections produced from laboratory cultures. It has already been reported that the monomer of TP10, added to blood meals at 30 µM, reduced parasite prevalence by 35–45% [35].

[4] = system: P. berghei ookinetes; test: P. berghei ookinete viability in vitro (erythrosin B); format: cell-based, Plasmodium berghei; details: 30 min; for Reduction in ookinete viability: versus control
Description: Our primary aim was to target parasites in mosquitoes before they cross the midgut wall, therefore AMPs were first assessed for their ability to kill ookinetes in vitro. […] Ookinete cultures of P. berghei were established from gametocytaemic blood as previously described. Parasites were enriched using cold 0.17M ammonium chloride after 18 h of culture and washed thoroughly with PBS (phosphate buffered saline). Parasites were seeded in triplicate wells of a 96-well microtitre plate at a density of 1×10^5/ml in a volume of 47.5 µl Schneider's insect medium (Invitrogen) with 2.5 µl of the test AMP (final concentration of 50 µM). Ookinetes were incubated for 30 min in conjunction with triplicate control wells containing medium with 2.5 µl of water instead of AMP. A sub-sample of parasites was then added to an equal volume of 5% erythrosin B to assess viability (150 ookinetes in total, taken from 3 wells). Each of the 33 AMPs was screened in this way and assays were performed 3 times. AMPs displaying a high degree of toxicity (>90% of ookinetes displaying erythrosin B staining) underwent further ookinete assays using a concentration of 100 µM AMP. To assess synergistic effects, combinations of two peptides were also tested at a concentration of 25 µM per AMP, in the assay described above.

[5] = system: An. gambiae (Mali strain); test: Mosquito longevity after blood feeds containing AMP; format: in vivo, Anopheles gambiae; details: for Significance of effect on longevity over 10 days: 50 µM AMP, Kaplan-Meier, Wilcoxon, peptide vs control; for Percent alive, peptide: over 10 days, 50 µM AMP in human blood, feeds on days 0 and 7, 3 or 4 replicates
Description: (§3) Female An. gambiae (Mali strain, 3–5 days old) were used to establish the effects of AMPs on mosquito longevity and fecundity in the absence of confounding factors introduced with parasite infection. Two hundred 3–6 day old females were fed on human O+ whole blood supplemented with 50 µM AMP (or water control, 1 ml total volume) via feeding chambers of a Hemotek membrane feeding system. Fully engorged mosquitoes were randomly moved into four separate cages, each containing 25 mosquitoes, to facilitate monitoring. Mortality rates were recorded daily for a 10-day period, and oviposition sites were provided on the second and third night post-feeding. A second blood feed containing the same AMP was administered 7 days later to mimic the likelihood that mosquitoes would feed at least twice in the field during the development of sporogonic stages of the malaria parasite. Oviposition sites were again provided to assess fecundity through the number of eggs laid as an average per surviving mosquito. Assays for each AMP were repeated in triplicate on separate generations of mosquitoes. Due to egg retention under experimental conditions, egg production is best measured by dissecting mosquitoes that have not been provided with an oviposition site. However, this is not a feasible method of determining fecundity when longevity is also being measured.

[6] = system: An. gambiae (Mali strain); test: as above; format: in vivo, Anopheles gambiae; details: 50 µM AMP in blood on days 0 and 7; extended to 30 days
[7] = system: P. falciparum; test: Field P. falciparum from gametocyte carriers membrane-fed to An. gambiae (Mali); format: in vivo, Plasmodium falciparum; details: Replicate 1, 50 µM
Description: Nyaganabougou, a village approximately 60 km south-west of the Malian capital, Bamako, was used as a site for the source of donors of malaria-infected blood. Due to its proximity to the river Niger, which provides perennial mosquito breeding sites, Nyaganabougou has high numbers of infected individuals and an extended transmission season. Mosquitoes used to establish the An. gambiae Mali colony used for this study were originally collected in the village of Kenieroba (a distance of 15 km from Nyaganabougou). Potential male and female gametocyte carriers between the ages of 6–10 were screened by thick smear and parasite species and density determined by local staff, led by Saibou Doumbia.
Gametocyte carriers were taken to the Malaria Research and Training Centre at the University of Bamako for blood donation. Approximately 4 ml of blood was extracted from carriers and immediately divided into 3 Hemotek membrane feeders for testing 2 separate AMPs and one control for each carrier. Peptides were added to 950 µl of gametocytaemic blood for a final concentration of 50 µM. All parasite-positive individuals were subsequently treated appropriately for parasites and associated symptoms, as determined by, and carried out by, local health workers in Nyaganabougou.
Approximately 120 adult female An. gambiae (Mali, 4–7 days old) were starved overnight, and allowed to feed on the gametocytaemic blood/AMP mix for 30 min. Engorged females were maintained on 10% glucose with 0.05% PABA for 8 days before dissection. No oviposition sites were provided so that fecundity could be measured by determining retained eggs. Mosquito wing length, numbers of retained eggs and oocysts were recorded, and triplicate peptide experiments were carried out on different mosquito cohorts, using blood from different donors. Where possible, a minimum of 50 mosquitoes were dissected for each condition.

[8] = system: P. falciparum; test: Cultured P. falciparum gametocytes membrane-fed to An. gambiae (oocyst prevalence and intensity); format: in vivo, Plasmodium falciparum; details: 50 µM; for Oocyst intensity (mean number of oocysts per gut, range in parentheses), peptide / Oocyst prevalence (oocyst positive mosquitoes), peptide: cultured gametocytes, An. gambiae
Description: P. falciparum NF54 gametocytes were produced through large-scale automated culture at the Pasteur Institute, Paris, [69]. Gametocytes were grown in 10 ml RPMI 1640 medium (Invitrogen), supplemented with 25 mM HEPES and L-glutamine, 10% heat-inactivated human serum and hypoxanthine (20 mg/L) under a constant gas supply (5% CO2, 1% O2, 94% N2). Fresh red blood cells (RBCs) were added to obtain a 7% haematocrit. Fourteen days after initiating the culture, gametocyte maturity was assessed on thin Giemsa-stained blood smears, and male gametocyte maturity verified by exflagellation tests. Gametocyte cultures were centrifuged for 5 min at 1500 rpm and the ∼500–600 µl pellet resuspended in fresh RBCs and AB human serum to give a final haematocrit of 40%.
Blood containing mature gametocytes (475 µl) was added to 25 µl of the test AMP (50 µM final concentration). Peptides were replaced by 25 µl of sterile deionized water for each control. The blood/parasite/peptide mixture was placed in a Hemotek membrane feeder, previously warmed to 37°C. For each feed, 70 to 100 nulliparous female An. gambiae mosquitoes were left to feed in the dark for 15 min and only fully engorged females were transferred to small cages and provided with 10% sucrose containing 0.05% PABA. After 8 days, 30 midguts were dissected and stained with bromo fluorescein for the detection of oocysts.

[9] = system: An. gambiae (Mali strain); test: Mosquito oviposition after blood feed containing AMP; format: in vivo, Anopheles gambiae; details: for Significance of effect on oviposition: 50 µM AMP, one-way ANOVA, peptide vs control; for Mean no. of eggs laid per mosquito, peptide: after first feed with 50 µM AMP, eggs laid over two nights, averaged per surviving mosquito, 3 or 4 replicates
Description: as §3

[10] = system: P. berghei; test: P. berghei infections in Anopheles stephensi (oocyst prevalence and intensity); format: in vivo, Plasmodium berghei; details: for Prevalence (proportion of infected mosquitoes), peptide: 50 µM peptide in gametocytaemic mouse blood fed to An. stephensi; for Intensity (mean number of oocysts, range in parentheses), peptide: 50 µM peptide, An. stephensi
Description: To assess the effects of AMPs on parasites in vivo, mouse blood containing P. berghei gametocytes was obtained by cardiac puncture and 475 µl was rapidly mixed with 25 µl (50 µM final concentration) of AMP. This mixture was fed to 100 nulliparous 3–5 day old female An. stephensi. A further 475 µl of blood from the same infection was mixed with 25 µl of distilled water to act as a control. Mosquitoes were maintained at 19°C for optimum parasite development. Between 30 and 50 mosquitoes were dissected after 10 days. Mosquito wing length, numbers of retained eggs and oocysts were recorded in triplicate experiments carried out on different mosquito cohorts.

[11] = 3 hrs in culture, haemocytometer count of duplicate wells
[12] = 50 µM of single peptide, n = 150 ookinetes per treatment per replicate
[13] = Replicate 1, dissected after 8 days
[14] = over the three replicates, 50 µM

CC[C@H](C)[C@H](NC(=O)[C@H](CCCCN)NC(=O)[C@H](CCCCN)NC(=O)[C@H](C)NC(=O)[C@H](CC(C)C)NC(=O)[C@H](C)NC(=O)[C@H](C)NC(=O)[C@H](CC(C)C)NC(=O)[C@H](C)NC(=O)[C@H](CCCCN)NC(=O)[C@H](CC(C)C)NC(=O)[C@H](CC(N)=O)NC(=O)[C@@H](NC(=O)[C@H](CCCCN)NC(=O)CNC(=O)[C@H](CC(C)C)NC(=O)[C@H](CC(C)C)NC(=O)[C@H](Cc1ccc(O)cc1)NC(=O)CNC(=O)[C@H](C)N)[C@@H](C)CC)C(=O)N[C@@H](CC(C)C)C(=O)O [TP10]
Reduction in cell viability ([1]; versus control): 3% | Reduction in cell number (compared to control) ([2]; 3 hrs in culture): 31% | Average number of cells over 3 replicates, peptide [2, 11]: 220000 mL⁻¹ | Reduction in cell number (compared to control) ([2]; 24 hrs in culture): 23% | Average number of cells over 3 replicates, peptide ([2]; 24 hrs in culture): 400000 mL⁻¹ | Reduction in cell number (compared to control) ([2]; 48 hrs in culture): 3% | Average number of cells over 3 replicates, peptide ([2]; 48 hrs in culture): 780000 mL⁻¹ | Reduction of parasite prevalence [3]: 35–45% | Average ookinete viability (3 reps), peptide [4, 12]: 26% | Reduction in ookinete viability ([4]; 50 µM of single peptide): 71%

Mastoparan X
Significance of effect on longevity over 10 days [5]: N/S | Percent alive, peptide [5]: 84% | Effect on longevity over 30 days (in words) [6]: no significant long-term effects on longevity | Oocyst prevalence (oocyst positive mosquitoes), peptide ([7]; blood of gametocyte carriers, progeny of field An. gambiae): 45% (40) | Oocyst intensity (mean number of oocysts per gut, range in parentheses), peptide ([7]; field parasites and mosquitoes): 3 (0–21) | Oocyst intensity (mean number of oocysts per gut, range in parentheses), peptide ([8]; Replicate 1): 2 (0–11) | Oocyst prevalence (oocyst positive mosquitoes), peptide [8, 13]: 47% (30) | Oocyst intensity (mean number of oocysts per gut, range in parentheses), peptide ([8]; Replicate 2): 2 (0–29) | Oocyst prevalence (oocyst positive mosquitoes), peptide ([8]; Replicate 2): 40% (30) | Oocyst intensity (mean number of oocysts per gut, range in parentheses), peptide ([8]; Replicate 3): 11 (0–72) | Oocyst prevalence (oocyst positive mosquitoes), peptide ([8]; Replicate 3): 60% (30) | Significance of effect on oviposition [9]: N/S | Mean no. of eggs laid per mosquito, peptide [9]: 44 | Average ookinete viability (3 reps), peptide [4, 12]: 41% | Reduction in ookinete viability ([4]; 50 µM of single peptide): 57% | Average ookinete viability (3 reps), peptide ([4]; 100 µM of single peptide): 4% | Reduction in ookinete viability ([4]; 100 µM of single peptide): 96%

Melittin
Average viability of cells (3 replicates), peptide ([1]; erythrosin B exclusion, 100 cells in triplicate wells): no intact cells remained; also recorded: No remaining cells | Reduction in cell number (compared to control) ([2]; 3 hrs in culture): 84% | Average number of cells over 3 replicates, peptide [2, 11]: 50000 mL⁻¹ | Reduction in cell number (compared to control) ([2]; 24 hrs in culture): 100% | Average number of cells over 3 replicates, peptide ([2]; 24 hrs in culture): no cells remaining and 0 ×10^4/ml | Reduction in cell number (compared to control) ([2]; 48 hrs in culture): 100% | Average number of cells over 3 replicates, peptide ([2]; 48 hrs in culture): 0 mL⁻¹ | Significance of effect on longevity over 10 days [5]: N/S | Percent alive, peptide [5]: 84% | Prevalence (proportion of infected mosquitoes), peptide ([10]; Replicate 1): 98% (50) | Intensity (mean number of oocysts, range in parentheses), peptide ([10]; Replicate 1): 50 (0–192) | Prevalence (proportion of infected mosquitoes), peptide ([10]; Replicate 2): 82% (49) | Intensity (mean number of oocysts, range in parentheses), peptide ([10]; Replicate 2): 28 (0–160) | Prevalence (proportion of infected mosquitoes), peptide ([10]; Replicate 3): 72% (50) | Intensity (mean number of oocysts, range in parentheses), peptide ([10]; Replicate 3): 31 (0–412) | Average reduction of parasite prevalence [10, 14]: 10% | Mean oocysts per midgut [10, 14]: 37 oocysts per midgut | Reduction of infection intensity ([10]; over the three replicates, 50 µM, control mean 114 oocysts): 68% | Oocyst intensity (mean number of oocysts per gut, range in parentheses), peptide ([8]; Replicate 1): 0 | Oocyst prevalence (oocyst positive mosquitoes), peptide [8, 13]: 0% (30) | Oocyst intensity (mean number of oocysts per gut, range in parentheses), peptide ([8]; Replicate 2): <1 (0–1) | Oocyst prevalence (oocyst positive mosquitoes), peptide ([8]; Replicate 2): 17% (30) | Oocyst intensity (mean number of oocysts per gut, range in parentheses), peptide ([8]; Replicate 3): 6 (0–74) | Oocyst prevalence (oocyst positive mosquitoes), peptide ([8]; Replicate 3): 37% (30) | Average reduction of intensity of infection ([8]; over three replicates): 57% | Average reduction of prevalence ([8]; over three replicates): 60% | Significance of effect on oviposition [9]: N/S | Mean no. of eggs laid per mosquito, peptide [9]: 41 | Average ookinete viability (3 reps), peptide [4, 12]: 0% | Reduction in ookinete viability ([4]; 50 µM of single peptide): 100%
